For assay [1], the system named is peripheral blood mononuclear cells (PBMC) stimulated with allogeneic PBMC or EBV-transformed human B cells (RPMI1788). Kind of assay: Mixed lymphocyte reaction (MLR) assay. The format is cell-based. An outline of the steps:
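Responder PBMC co-cultured in triplicate with 30 Gy-irradiated allogeneic PBMC or RPMI1788 B cells plus compound (DMSO stock 10 mM, diluted in medium). After 5 days at 37° C, 1 μCi [3H]-thymidine added for 16 h more; incorporated cpm counted and proliferation inhibition calculated.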

Assay [2] relates to production of human TNF-α by PBMC in response to LPS. The experiment in a line: TNF-α assay (LPS-stimulated PBMC, sandwich ELISA). In kind it is cell-based. How it is done:
Peripheral blood mononuclear cells (herein referred as PBMC), in response to stimulation by lipopolysaccharide (hereinafter LPS), a gram-negative bacterial endotoxin, produce various […], in particular human TNF-α. Inhibition of the activation of PBMC can therefore be measured by the level of suppression of the production of TNF-α by PBMC in response to stimulation by LPS. Inhibition measurement was performed as follows: PBMC were isolated from heparinized peripheral blood by density gradient centrifugation over Lymphoprep (commercially available from Nycomed, Norway). LPS was then added to the PMBC suspension in complete medium (10^6 cells/ml) at a final concentration of 1 μg/ml. The pteridine derivative to be tested was added at different concentrations (0.1 μM, 1 μM and 10 μM) and the cells were incubated at 37° C. for 72 hours in 5% CO2. The supernatants were collected, then TNF-α concentrations were measured with respectively an anti-TNF-α antibody in a sandwich ELISA (Duo Set ELISA human TNFα, commercially available from R&D Systems, United Kingdom). The colorimetric reading of the ELISA was measured by a Multiskan RC plate reader (commercially available from ThermoLabsystems, Finland) at 450 nm (reference wavelength: 690 nm). Data analysis was performed with Ascent software 2.6. (also from ThermoLabsystems, Finland): a standard curve (recombinant human TNFα) was drawn and the amount (pg/ml) of each sample on the standard curve was determined. The % suppression of human TNFα production by the pyrido[3,2-d]pyrimidine derivatives of the invention was calculated using the formula: [formula]
In general terms: In an ELISA, binding on a coated surface is turned into a signal by an enzyme label.

[3] abbreviates: 50% suppression of the MLR, [3H]-thymidine incorporation, read-out: MLR.
Where [4] appears, read: LPS 1 μg/ml, 72 hours, read-out: TNF α.
[5] abbreviates: Homo sapiens, RPMI-1788, 50% suppression of the MLR, [3H]-thymidine incorporation, read-out: MLR.
[6] abbreviates: Homo sapiens, PBMC, LPS 1 μg/ml, 72 hours, read-out: TNF α.
Where [7] appears, read: Homo sapiens, RPMI-1788, MLR assay of example 319, read-out: MLR IC50.

Where two headings read alike, the source gives them in different places.

This passage reports IC50 results from patent US20090264415A2 (priority 2004, published 2009).

`COc1ccc(-c2ccc3ncnc(N4CCN(CCOc5ccccc5)CC4)c3n2)cc1OC` [Example 5, 4-[(2-phenoxyethyl)-piperazin-1-yl]-6-(3,4-dimethoxyphenyl)-pyrido[3,2-d]pyrimidine]: the values for the IC50 in assay [1] (setting [3]) and in assay [2] (setting [4]) were 0.1 µM and 0.65 µM, respectively.
On the same counts, the results for `COc1ccc(-c2ccc3nc(N(C)C)nc(N4CCN(C(=O)Nc5cccc(C)c5)CC4)c3n2)cc1OC` [Example 15] are 0.4 µM and 3.3 µM.
For `COc1ccc(-c2ccc3nc(OC(C)CN4CCCC4)nc(N4CCN(C(=O)Nc5cccc(C)c5)CC4)c3n2)cc1OC` (centres unmarked) [Example 17], in that order: 2.7 µM and 5.2 µM.
Take `COc1ccc(-c2ccc3nc(N)nc(OCCOc4ccccc4)c3n2)cc1OC` [Example 25, 2-amino-4-(2-phenoxyethoxy)-6-(3,4-dimethoxyphenyl)-pyrido[3,2-d]pyrimidine]: the IC50 in assay [1] (setting [5]) turned out to be 0.3 µM; in assay [2] (setting [6]), 0.7 µM.
For `COc1ccc(-c2ccc3nc(N)nc(Nc4ccc5c(c4)OCO5)c3n2)cc1OC` [Example 28, 2-amino-4-[3,4-(methylenedioxy)aniline]-6-(3,4-dimethoxyphenyl)pyrido[3,2-d]pyrimidine], the IC50 in assay [1] (setting [3]) worked out at 0.7 µM; in assay [2] (setting [4]), 0.8 µM.
For the compound `COc1ccc(-c2ccc3nc(N)nc(Nc4cccc(Br)c4)c3n2)cc1OC` [Example 29, 2-amino-4-(3-bromo-anilino)-6-(3,4-dimethoxyphenyl)pyrido[3,2-d]-pyrimidine], the IC50 turned out to be 0.7 µM in assay [1] (setting [5]) and 0.8 µM in assay [2] (setting [6]).
For the compound `COc1ccc(-c2ccc3nc(N)nc(N4CCN(C)CC4)c3n2)cc1OC` [Example 31, 2-amino-4-(N-methyl-piperazino)-6-(3,4-dimethoxyphenyl)-pyrido[3,2-d]pyrimidine], the results for the IC50 in assay [1] (setting [5]) and in assay [2] (setting [6]) were 0.9 µM and 0.8 µM, respectively.
As to `COc1ccc(-c2ccc3nc(N)nc(NCCN4CCOCC4)c3n2)cc1OC` [Example 33, 2-amino-4-[4-(2-aminoethyl)morpholino]-6-(3,4-dimethoxyphenyl)-pyrido[3,2-d]pyrimidine], the figures for the IC50 in assay [1] (setting [3]) and in assay [2] (setting [4]) were 1.9 µM and 0.7 µM, respectively.
For `COc1ccc(-c2ccc3nc(N)nc(NCC(OC)OC)c3n2)cc1OC` [Example 34, 2-amino-4-(2,2-dimethoxyethylamino)-6-(3,4-dimethoxyphenyl)pyrido[3,2-d]pyrimidine], the IC50 in assay [1] (Homo sapiens, RPMI-1788, read-out: MLR (μM)) was determined as 0.8 µM; in assay [2] (Homo sapiens, PBMC, 72 h, read-out: TNF α (μM)), 0.6 µM.
On to `COc1ccc(-c2ccc3nc(N)nc(NCc4ccccn4)c3n2)cc1OC` [Example 35, 2-amino-4-[2-(aminomethyl)pyridino]-6-(3,4-dimethoxyphenyl)-pyrido[3,2-d]pyrimidine], for which the IC50 was 0.8 µM in assay [1] (setting [3]) and 0.7 µM in assay [2] (setting [4]).
For `COc1ccc(-c2ccc3nc(N)nc(N4CCN(Cc5ccc6c(c5)OCO6)CC4)c3n2)cc1OC` [Example 50, 2-amino-4-(1-piperonyl-piperazin-1-yl)-6-(3,4-dimethoxyphenyl)-pyrido[3,2-d]pyrimidine], the values for the IC50 in assay [1] (setting [3]) and in assay [2] (setting [4]) were 7.4 µM and 8.5 µM, respectively.
For `COc1ccc(-c2ccc3nc(N)nc(N4CCN(Cc5ccccc5)CC4)c3n2)cc1OC` [Example 52, 2-amino-4-(1-benzylpiperazin-1-yl)-6-(3,4-dimethoxyphenyl)-pyrido[3,2-d]pyrimidine], in that order: 0.8 µM and 0.46 µM.
Consider `COc1ccc(-c2ccc3nc(N)nc(N4CCN(C(=O)Nc5cc(Cl)nc(Cl)c5)CC4)c3n2)cc1OC` [Example 55, 2-amino-4(N-2,6-dichloro-pyridinyl-carbamoyl-piperazin-1-yl)-6-(3,4-dimethoxyphenyl)-pyrido[3,2-d]pyrimidine], for which the figures for the IC50 in assay [1] (setting [3]) and in assay [2] (setting [4]) were 0.3 µM and 0.4 µM, respectively.
On the same counts, the results for `COc1nc(N2CCN(C(=O)Nc3cccc(C)c3)CC2)c2nc(-c3ccc(OC)c(OC)c3)ccc2n1` [Example 90, 2-methoxy-4-[(N-3-methyl-phenylcarbamoyl)-piperazin-1-yl]-6-(3,4-dimethoxy-phenyl)-pyrido[3,2-d]pyrimidine] are 0.14 µM and 0.5 µM.
Consider `COc1cc(-c2ccc3nc(N)nc(N4CCOCC4)c3n2)ccc1O` [Example 96, 2-amino-4-(N-morpholino)-6-(4-hydroxy-3-methoxy)-pyrido[3,2-d]pyrimidine], for which the IC50 in assay [1] (setting [3]) turned out to be 0.8 µM; in assay [2] (setting [4]), 0.6 µM.
Consider `CCOc1ccc(-c2ccc3nc(N)nc(N4CCOCC4)c3n2)cc1OC` [Example 97, 2-amino-4-(N-morpholino)-6-(4-ethoxy-3-methoxyphenyl)-pyrido[3,2-d]pyrimidine], for which the IC50 was 0.5 µM in assay [1] (setting [3]) and 0.3 µM in assay [2] (setting [4]).
For `COc1cc(-c2ccc3nc(N)nc(N4CCOCC4)c3n2)ccc1OC(C)C` [Example 99, 2-amino-4-(N-morpholino)-6-(4-isopropoxy-3-methoxy-phenyl)-pyrido[3,2-d]pyrimidine], in that order: 0.7 µM and 1 µM.
On the same counts, the results for `COc1cc(-c2ccc3nc(N)nc(N4CCNCC4)c3n2)ccc1O` [Example 100, 2-amino-4-(N-piperazin-1-yl)-6-(3-methoxy-4-hydroxyphenyl)-pyrido[3,2-d]pyrimidine] are 3.3 µM and 2.4 µM.
Take `COc1cc(-c2ccc3nc(N)nc(N4CCN(C(=O)Nc5ccc(F)cc5)CC4)c3n2)ccc1O` [Example 101, 2-amino-4-[(N-4-fluoro-phenyl-carbamoyl)-piperazin-1-yl]-6-(4-hydroxy-3-methoxy-phenyl)-pyrido[3,2-d]pyrimidine]: the IC50 in assay [1] (setting [3]) is 0.5 µM; in assay [2] (setting [4]), 0.6 µM.
On the same counts, the results for `CCOc1ccc(-c2ccc3nc(N)nc(N4CCN(C(=O)Nc5ccc(F)cc5)CC4)c3n2)cc1OC` [Example 102] are 0.04 µM and 0.6 µM.
With `COc1cc(-c2ccc3nc(N)nc(N4CCN(C(=O)Nc5ccc(F)cc5)CC4)c3n2)ccc1OC(C)C` [Example 103, 2-amino-4-[(N-4-fluoro-phenyl-carbamoyl)-piperazin-1-yl]-6-(4-isopropoxy-3-methoxy-phenyl)-pyrido[3,2-d]pyrimidine], the IC50 in assay [1] (setting [3]) was 0.07 µM; in assay [2] (setting [4]), 6.4 µM.
On to `COc1ccc(-c2ccc3nc(N)nc(N4CCN(CC(=O)NCCc5ccccc5)CC4)c3n2)cc1OC` [Example 270, 2-amino-4-[4-(N-2-phenylethylacetamid-2-yl)piperazin-1-yl]-6-(3,4-dimethoxyphenyl)-pyrido[3,2-d]pyrimidine], for which, in assay [2] (setting [6]), the IC50 was 0.3 µM.
On to `COc1ccc(-c2ccc3nc(N)nc(NCCC(=O)N4CCN(C(C)=O)CC4)c3n2)cc1OC` [Example 272, 2-amino-4-[3-(4-acetylpiperazin-1-yl)-propan-3-one-1-yl-amino]-6-(3,4-dimethoxyphenyl)-pyrido[3,2-d]pyrimidine], for which the IC50 in assay [2] (setting [6]) was 0.7 µM.
Regarding `COc1ccc(-c2ccc3nc(N)nc(N4CCN(CC(=O)N5CCCC5)CC4)c3n2)cc1OC` [Example 273, 2-amino-4-(N-pyrrolidinyl-acetamid-2-yl-piperazin-1-yl)-6-(3,4-dimethoxyphenyl)pyrido[3,2-d]pyrimidine], the IC50 in assay [2] (setting [6]) is 0.08 µM.
Regarding `COc1ccc(-c2ccc3nc(N)nc(N4CCN(CC(=O)Nc5ccccn5)CC4)c3n2)cc1OC` [Example 274, 2-amino-4-(N-pyridinylacetamid-2-yl-piperazin-1-yl)-6-(3,4-dimethoxyphenyl)-pyrido[3,2-d]pyrimidine], the IC50 in assay [2] (setting [6]) stood at 0.08 µM.
Regarding `COc1ccc(-c2ccc3nc(N)nc(N4CCN(CC(=O)N5CCOCC5)CC4)c3c2)cc1OC` [Example 275, 2-amino-4-[N-(piperazino)-acetyl-morpholino]-6-(3,4-dimethoxyphenyl)-pyrido[3,2-d]pyrimidine], the IC50 in assay [2] (setting [6]) was determined as 0.097 µM.
Take `COc1ccc(-c2ccc3nc(N)nc(NCC(=O)N4CCN(C)CC4)c3n2)cc1OC` [Example 276, 2-amino-4-[2-amino-1-(4-methyl-piperazin-1-yl)-ethanone]-6-(3,4-dimethoxyphenyl)-pyrido[3,2-d]pyrimidine]: the IC50 in assay [2] (setting [6]) worked out at 0.6 µM.
With `Cc1cccc(NC(=O)N[C@@H]2CCN(c3nc(N)nc4ccc(-c5ccc(F)cc5)nc34)C2)c1` [Example 579], the IC50 in assay [1] (setting [7]) is above 10 µM.
On the same count and under the same terms, the result for `Cc1cccc(NC(=O)N2CCC(Nc3nc(N)nc4ccc(-c5ccc(F)cc5)nc34)C2)c1` [Example 580, 2-amino-4-[1-(3-methylphenylcarbamoyl)-(S)-amino-pyrrolidin-3-yl]-6-(4-fluorophenyl)-pyrido(3,2-d)pyrimidine] reads 0.3 µM.
